These results are taken from patent publication US20210324441A1, “CHARACTERIZATION OF MICROORGANISMS VIA MALDI-TOF” (BIOMÉRIEUX, priority 2014, published 2021).

One data set has as its system E. coli. Put plainly: MIC of ampicillin for the bacterial strain. It is filed as cell-based.
The nature of data set [1]: Negative control without enzyme: ampicillin dried on MALDI plate, MALDI-TOF detection. The conditions noted are these: water with 0.76 mM zinc, no enzyme, ambient temperature, one hour. It is filed as physicochemical. On the procedure: In the present experiment, an analysis zone of a MALDI plate (VITEK® MS disposable slides TO-430) was treated with a beta-lactam antibiotic and tested in order to evaluate the capacity of the antibiotics to be cleaved by a beta-lactamase. Ampicillin was used as the model for the antibiotic beta-lactam. The experiment was carried out by implementing the steps below: • 2 μL of a solution of ampicillin in a concentration of 10 mg/mL in water was deposited in the form of a drop onto an analysis zone of the MALDI plate. The plate was incubated at 37° C., until the drop had dried out completely. • 2 μL of a recombinant beta-lactamase (β-lactamase from Pseudomonas aeruginosa, Sigma-Aldrich batch L6170-550UN. CAS: 9073-60-3). • 2 μL of recombinant β-lactamase at a concentration of 1 mg/mL in water was used diluted in water supplemented with zinc in the form of zinc sulfate (0.76 millimoles (mM)) to promote enzymatic activity, was deposited onto the dry analysis zone carrying ampicillin. […]

The subject of a further data set is K. pneumoniae. The data set can be described thus: MIC of ampicillin for the bacterial strain. It is filed as cell-based. The conditions noted are these: strain 1, K. pneumoniae, resistant.

In the case of `CC1(C)S[C@@H]2[C@H](NC(=O)[C@H](N)c3ccccc3)C(=O)N2[C@H]1C(=O)O` [ampicillin], the “MIC of ampicillin (minimum inhibiting concentration of the strain)” value with E. coli (strain 2, E. coli, resistant, penicillinase) is given as >128; with E. coli (strain 3, E. coli, resistant, TEM β-lactamase) it was >128; with E. coli (strain 4, E. coli ATCC 25922, sensitive, no β-lactamase) it was 4; in the data set with K. pneumoniae, 32. Further, in data set [1], the “spontaneous hydrolysis on the plate” value is listed as “A little spontaneous hydrolysis”.
